The values below come from patent US5750540A, “1,4-di-substituted piperidine derivatives” (Banyu Pharmaceutical Co., Ltd., priority 1995, dated 1998).

Experiment [1] deals with T1, intestinal M3 receptors (ileum) (Rattus norvegicus, UniProt P08483).
T1 construct: the ileum was excised; from tissue; host or cells: isolated rat ileum
Nature of the experiment: Antagonism against intestinal M3 receptors in an isolated rat ileum. As to conditions: in vitro, agonist carbachol. As to the method:
4) Tests for antagonism against the intestinal M3 receptors in an isolated rat ileum
A male SD strain rat (weighing 300-500 g) was killed by exsanguination, and the ileum was excised. This ileum was cut to make ileum preparations having a length of 2 cm. A preparation was suspended in a Magnus tube filled with 20 ml of Krebs-Henseleit nutrient solution (gassed with 95% O2 -5% CO2 and kept at 32° C.) under a load of 0.5 g. The tension of the preparation was recorded isotonically. After being equilibrated for an hour, the preparation was made to contract twice by treatment with 10^-4 M carbachol, and the second contraction induced by carbachol was used as the reference contraction. After the preparation was washed with fresh solution to make a return to the base line, a test compound was administered thereto (or no treatment was made). Ten minutes later, carbachol (10^-8 to 10^-3 M) was cumulatively administered from the lowermost concentration in three-fold increasing doses to obtain a dose-response curve. The dose-response curve was constructed by expressing responses as percentages based on the reference contraction of the preparation. The antagonistic potency (KB value) of the test compound was determined from the degree of shift of the dose-response curve obtained by treatment with the test compound.

Experiment [2] addresses T2, muscarinic M3 receptor (Rattus norvegicus, UniProt P08483). Nature of the experiment: Intravesical bladder pressure in rats. Type of experiment: in vivo. More on the design: from tissue. As to conditions: i.v., 25% inhibition of peak intravesical bladder pressure. As to the method:
(§1) Tests for antagonism against muscarinic M3 receptor (in vivo)
4) Tests for intravesical bladder pressure in rats
These tests were performed according to the method of Maggi et al. (Drug Dev. Res. 10: 157-170, 1987). Briefly, eight- to ten-weeks-old male rats of the Sprague-Dawley strain, weighing 330-370 g, were anesthetized by subcutaneous administration of urethane (1 g/kg) and α-chloralose (50 mg/kg), and the right jugular vein was cannulated for drug administration. The body temperature was kept constant by means of a heating pad maintained at 37° C. Through a midline incision of the abdomen, the urinary bladder was exposed and emptied of urine by the application of a slight manual pressure. A 20-gauge needle was inserted through the apex of the bladder dome by 3-4 mm into its lumen. The needle had previously been connected to a pressure transducer and an infusion pump by means of polyethylene tubing and the whole system filled with saline. After a 30-minutes equilibration period at zero volume, saline was infused (2.8 ml/hr) until a coordinated sustained contraction, reflecting the peak intravesical bladder pressure, occured. The bladder was then emptied manually and allowed to rest for five minutes. PvesP was defined as the difference between the maximum and resting bladder pressures. This procedure was repeated at least five times and the evaluation of a test compound was carried out in the animals in which a stable peak intravesical bladder pressure was recorded. The drug potency (ID25 ) was determined after intravenous administration of the test compound during the rest period. Five minutes after drug administration, the infusion of saline was started to induce micturition contraction and the peak intravesical bladder pressure was recorded. The depression in peak intravesical bladder pressure was expressed as a percent of the control peak intravesical bladder pressure observed before administration of the test compound. The ID25 value, calculated by probit analysis, was defined as the drug dose that inhibited the control peak intravesical bladder pressure by 25%.

The target of experiment [3] is T2, muscarinic M3 receptor. Description: in vivo. More on the design: from tissue; host or cells: living rat, airways. The note with it: iv, read-out: Salivary secretion ID50. As to the method:
as §1
2) Tests for salivary secretion in rats
Five- to seven-weeks-old male rats of the Sprague-Dawley strain were anesthetized with sodium pentobarbital (65 mg/kg, i.p.), and a cannula was inserted into the right jugular vein for purposes of drug administration. A test compound was administered intravenously. Five minutes later, carbachol (10 μg/kg, i.v.) was administered to evoke salivary secretion. For each rat, saliva collection was started immediately after carbachol administration and continued for ten minutes. This was carried out by inserting glass capillaries (Drummond, 100 μl) into the oral cavity of the rat at intervals of one minute. The amount of collected saliva was determined on the assumption that a length of 75 mm of the glass capillary corresponded to 100 μl. Physiological saline was used in the control group. The ID50 value was calculated from the dose-response curve of the test compound using probit analysis and defined as the drug dose that inhibited the carbachol-induced salivation in the control group by 50%.

T2 sequence (P08483 whole entry): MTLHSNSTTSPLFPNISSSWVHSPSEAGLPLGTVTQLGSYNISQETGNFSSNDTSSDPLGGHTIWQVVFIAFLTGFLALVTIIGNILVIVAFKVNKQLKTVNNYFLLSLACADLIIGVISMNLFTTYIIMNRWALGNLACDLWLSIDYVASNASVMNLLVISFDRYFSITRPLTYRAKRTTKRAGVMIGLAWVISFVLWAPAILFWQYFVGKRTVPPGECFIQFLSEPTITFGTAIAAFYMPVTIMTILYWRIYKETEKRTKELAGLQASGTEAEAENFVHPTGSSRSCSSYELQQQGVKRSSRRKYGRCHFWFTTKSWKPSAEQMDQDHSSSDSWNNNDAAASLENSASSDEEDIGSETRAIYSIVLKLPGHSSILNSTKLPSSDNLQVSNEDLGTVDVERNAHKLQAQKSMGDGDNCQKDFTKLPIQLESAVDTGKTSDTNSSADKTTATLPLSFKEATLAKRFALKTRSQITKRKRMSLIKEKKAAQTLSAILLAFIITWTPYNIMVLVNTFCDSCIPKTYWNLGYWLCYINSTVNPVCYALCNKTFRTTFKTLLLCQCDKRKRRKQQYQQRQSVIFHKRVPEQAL
T1 sequence (P08483 whole entry): as above

Usually Kb stands for the affinity of an antagonist, worked out from how it opposes an agonist. Low values mean higher antagonist affinity, high ones lower antagonist affinity. In turn, `CC(C)=CCCN1CCC(NC(=O)C(O)(c2ccccc2)C2CCC2)CC1` (stereo not drawn) [Example 1, N-[1-(4-methyl-3-pentenyl)-piperidin-4-yl]-2-cyclobutyl-2-hydroxy-2-phenylacetamide] showed a Kb in experiment [1] of 24 nM. In addition, in experiment [2], the “Urinating contraction ID25” value stood at 1.3 mg/kg i.v. The ED50 in experiment [3] amounted to 0.19 mg/kg.
